Measurements as given in patent US11873298B2, “Compounds and uses thereof” (JANSSEN PHARMACEUTICA NV, priority 2017, dated 2024).
“And” between values parts separate entries of the source, which are not always exact repeats. Identical values can stand only once.

How the values were obtained:
Type in all cases: cell-based
Ole1 = target: T1, Ole1 (Saccharomyces cerevisiae, UniProt P21147); assay: Growth inhibition of yeast strain expressing Ole1 as sole desaturase; settings: yeast strain expressing Ole1 as sole desaturase
T1 construct: expressed in transfected cells; host or cells: S. cerevisiae ole1Δ strain (W303 pdr1Δ pdr3Δ background), plasmid pRS316 with TDH3 promoter and CYC1 terminator
T1 sequence (P21147 1-510): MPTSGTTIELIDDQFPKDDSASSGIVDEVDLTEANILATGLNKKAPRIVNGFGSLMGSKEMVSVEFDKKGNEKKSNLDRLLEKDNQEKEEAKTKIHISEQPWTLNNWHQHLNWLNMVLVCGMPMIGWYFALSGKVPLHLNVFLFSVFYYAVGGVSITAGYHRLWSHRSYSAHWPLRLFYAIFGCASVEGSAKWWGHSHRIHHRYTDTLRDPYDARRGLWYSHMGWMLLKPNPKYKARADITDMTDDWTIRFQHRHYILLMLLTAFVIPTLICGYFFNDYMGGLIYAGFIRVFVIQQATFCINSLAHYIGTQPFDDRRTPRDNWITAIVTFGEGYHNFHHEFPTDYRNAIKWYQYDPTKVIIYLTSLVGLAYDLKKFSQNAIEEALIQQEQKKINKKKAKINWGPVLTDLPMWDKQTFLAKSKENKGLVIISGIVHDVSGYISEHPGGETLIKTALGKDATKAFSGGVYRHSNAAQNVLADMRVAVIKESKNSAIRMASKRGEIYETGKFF
Method in brief: (§1)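 Plasmid-complemented ole1Δ yeast, drug-pump deleted (pdr1Δ pdr3Δ), depend solely on the introduced Ole1, SCD1 or SCD5 desaturase. Compounds are added from DMSO to cells in uracil-free galactose medium, 2× density 0.02, and OD600 is read after 24 h or 40 h respectively.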

SCD1 = target: T2, SCD1 (Homo sapiens, UniProt O00767); assay: Growth inhibition of humanized yeast strain expressing SCD1 as sole desaturase; settings: humanized yeast strain expressing SCD1
T2 construct: host or cells: S. cerevisiae ole1Δ strain (W303 pdr1Δ pdr3Δ background), plasmid pRS316 with TDH3 promoter and CYC1 terminator
T2 sequence (O00767 1-359): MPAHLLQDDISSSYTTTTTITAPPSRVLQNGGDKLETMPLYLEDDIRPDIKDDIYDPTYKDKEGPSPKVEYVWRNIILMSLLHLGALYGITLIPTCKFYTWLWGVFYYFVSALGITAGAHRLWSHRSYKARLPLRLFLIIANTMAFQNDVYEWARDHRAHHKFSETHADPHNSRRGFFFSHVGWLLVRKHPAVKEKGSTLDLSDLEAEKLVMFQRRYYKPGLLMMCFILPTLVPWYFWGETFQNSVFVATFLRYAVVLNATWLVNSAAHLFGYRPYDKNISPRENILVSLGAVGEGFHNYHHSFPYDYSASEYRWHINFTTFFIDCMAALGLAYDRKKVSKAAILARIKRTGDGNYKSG
Method in brief: as §1

SCD5 = target: T3, SCD5 (Homo sapiens, UniProt Q86SK9); assay: Growth inhibition of humanized yeast strain expressing SCD5 as sole desaturase; settings: humanized yeast strain expressing SCD5
T3 construct: host or cells: S. cerevisiae ole1Δ strain (W303 pdr1Δ pdr3Δ background), plasmid pRS316 with TDH3 promoter and CYC1 terminator
T3 sequence (Q86SK9 1-330): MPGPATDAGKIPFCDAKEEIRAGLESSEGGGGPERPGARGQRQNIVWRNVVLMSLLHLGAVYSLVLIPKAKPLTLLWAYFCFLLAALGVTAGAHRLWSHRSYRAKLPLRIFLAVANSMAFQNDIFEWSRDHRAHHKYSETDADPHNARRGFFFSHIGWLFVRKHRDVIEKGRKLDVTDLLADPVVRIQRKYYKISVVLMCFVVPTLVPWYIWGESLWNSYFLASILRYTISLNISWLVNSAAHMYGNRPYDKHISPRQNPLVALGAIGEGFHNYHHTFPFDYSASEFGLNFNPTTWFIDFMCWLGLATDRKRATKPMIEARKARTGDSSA
Method in brief: as §1

Row | Compound | IC50 (Ole1) | OLE1 % Max Inhibition (Ole1) | IC50 (SCD1) [µM] | SCD1 % Max Inhibition (SCD1) | IC50 (SCD5) [µM] | SCD5 % Max Inhibition (SCD5)
1 | Cc1nn(C)c2cc(-c3noc(C4CCN(C(=O)CNC(=O)c5cccnc5)CC4)n3)ccc12 [Compound 197] | > 45 µM | 4.80% | > 45 | 66.87% | > 45 | 61.44%
2 | Cc1nn(C)c2ccc(-c3noc(C4CCN(C(=O)c5ccc(C(C)C)cc5)CC4)n3)cc12 [Compound 297] | 25.2 µM | 42.0% |  | 5.7% | > 45 | 9.2%
3 | O=C(C1CC(=O)N(c2cccc(Cl)c2)C1)N1CCC(c2nc(-c3cnn(C4COC4)c3)no2)CC1 (stereo not drawn) [Compound 340] | > 45 µM | 88.9% | > 45 | 55.0% | > 45 | 65.9%
4 | Cn1ncc2c1CN(c1noc(C3CCN(C(=O)C4CC(=O)N(c5ccccc5)C4)CC3)n1)CC2 (stereo not drawn) [Compound 243] | > 45 µM | 94.60% | > 45 | 94.50% | > 45 | 72.11%
5 | Cc1nn(C)c2cc(-c3noc(C4CCN(C(=O)[C@@H]5CC(=O)N(c6ccc(C#N)cc6)C5)CC4)n3)ccc12 [Compound 308] | > 45 µM and 27.2 µM | 63.7% and 49.30% | ≥ 45 | 81.6% and 61.05% | > 45 | 15.5% and 6.81%
6 | Cc1ncc2ccc(-c3noc(C4CCN(C(=O)C5CC(=O)N(c6ccccc6)C5)CC4)n3)cn12 (stereo not drawn) [Compound 216] | 35.1 µM | 61.84% | > 45 | 83.82% | > 45 | 75.59%
7 | CCN1C(=O)COc2ccc(-c3noc(C4(c5ccc(OC)cc5)CC4)n3)cc21 [Compound 491] | > 45 µM | 107.15% |  | 118.81% | > 45 | 83.61%
8 | CC(C)n1cc2ccc(-c3noc(C4CCN(C(=O)C5CC(=O)N(c6ccccc6)C5)CC4)n3)cc2n1 (stereo not drawn) [Compound 180] | > 45 µM | 107.78% | > 45 | 102.85% | > 45 | 82.28%
9 | CCOc1ccc(-c2noc(N3CCN(C(=O)CN4Cc5ccccc5C4=O)CC3)n2)cc1OC [Compound 225] | > 45 µM | 20.97% | > 45 | 94.06% | > 45 | 88.95%
10 | CC(C)c1ccc(C(=O)N2CCC(c3nc(-c4ccc5cnn(C)c5c4)no3)CC2)cc1 [Compound 204] | > 45 µM | 79.30% and 50.38% | > 45 | 30.36% and 21.99% | > 45 | 0.25% and 2.95%
11 | Cc1nn(C)c2cc(-c3noc(C4CCN(C(=O)CNC(=O)c5ccc(Cl)cc5)CC4)n3)ccc12 [Compound 269] | > 45 µM | 6.62% and 4.57% |  | 38.78% and 25.11% | > 45 | 8.38% and 5.30%
12 | Cc1nn(C)c2cc(-c3noc(C4CCN(C(=O)CNC(=O)c5ccncc5)CC4)n3)ccc12 [Compound 198] | > 45 µM | 2.96% | > 45 | 71.25% | > 45 | 36.45%
13 | COc1ccc(N2CC(C(=O)N3CCC(c4nc(-c5ccc6c(C)nn(C)c6c5)no4)CC3)CC2=O)cc1 (stereo not drawn) [Compound 206] | > 45 µM | 5.25% | > 45 | 93.66% | > 45 | 19.89%
14 | CCOc1ccc(-c2noc(C3CCN(C(=O)CN4Cc5c(F)cccc5C4=O)CC3)n2)cc1OC [Compound 175] | > 45 µM | 3.00% | > 45 | 77.47% | > 45 | 77.96%
15 | Cc1nn(C)c2cc(-c3noc(C4CCN(C(=O)c5cccc(F)c5)CC4)n3)ccc12 [Compound 284] | > 45 µM | 12.40% |  | 4.81% | > 45 | 6.80%
16 | CCN(Cc1nc(-c2ccccc2)no1)C(=O)Cc1cccc2ccccc12 [Compound 156] | 37.1 µM | 63.63% | > 45 | 72.58% | > 45 | 22.37%
17 | Cc1nn(C)c2cc(-c3noc(N4C[C@H]5CN(C(=O)CNC(=O)c6ccccc6)C[C@H]5C4)n3)ccc12 [Compound 207] | > 45 µM | 5.39% | > 45 | 86.42% | > 45 | 72.56%
18 | Cc1nn(C)c2cc(-c3noc(N4CCN(C(=O)c5cc(F)ccc5Cl)CC4)n3)ccc12 [Compound 278] | > 45 µM | 21.08% |  | 32.22% | > 45 | 10.55%
19 | CCOc1ccc(-c2noc(C3CCN(C(=O)C4CN(c5ccccc5)C(=O)CO4)CC3)n2)cc1OC (stereo not drawn) [Compound 235] | > 45 µM | 84.04% | > 45 | 74.46% | > 45 | 87.47%
20 | Cc1nn(C2CC2)c2cc(-c3noc(C4CCN(C(=O)CNC(=O)c5ccccc5)CC4)n3)ccc12 [Compound 286] | > 45 µM | 5.18% and 4.35% |  | 13.04% and 14.44% | > 45 | 8.76% and 9.55%
21 | Cc1nn(C)c2cc(-c3noc(N4CCN(C(=O)c5cc(F)ccc5C(F)(F)F)CC4)n3)ccc12 [Compound 293] | 34.9 µM | 66.4% | > 45 | 12.3% | > 45 | 11.9%
